Test results taken from ChEMBL document CHEMBL3217553, “Binding properties and biological characterization of new sugar-derived Ras ligands” (Medchemcomm, 2011).
The source made the active and inactive calls. The calls are words filed in the database; no cut-off is given here.

Columns and labels:
[1] = target: T1, GTPase HRas (Homo sapiens, UniProt P01112); test: Inhibition of recombinant N-terminal His-tagged H-Ras (unknown origin) expressed in Escherichia coli M15 assessed as inhibition of GEF-mediated nucleotide exchange after 300 secs by luminescence spectrophotometry
Target sequence in this assay (P01112 whole entry): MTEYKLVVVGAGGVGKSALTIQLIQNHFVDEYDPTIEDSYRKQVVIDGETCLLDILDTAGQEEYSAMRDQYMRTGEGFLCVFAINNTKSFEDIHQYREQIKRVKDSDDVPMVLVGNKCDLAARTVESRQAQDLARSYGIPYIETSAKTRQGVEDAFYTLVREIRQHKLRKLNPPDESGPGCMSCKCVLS

[2] = system: NIH3T3; test: Inhibition of cell proliferation in mouse NIH/3T3 cells expressing K-RAS after 24 to 72 hrs by coulter counting analysis; assay type: functional, cell-based
[3] = target: T1, GTPase HRas; test: Binding affinity to [15N]-H-Ras (1 to 166) (unknown origin) by NMR spectrometry
Target sequence in this assay (P01112 whole entry): as above

[4] = target: T1, GTPase HRas; test: Inhibition of recombinant N-terminal His-tagged H-Ras (unknown origin) expressed in Escherichia coli M15 assessed as inhibition of human Sos1-mediated nucleotide exchange after 300 secs by luminescence spectrophotometry
[5] = Inhibition of cell proliferation in mouse NIH/3T3 cells after 24 to 72 hrs by coulter counting analysis; assay type: cell-based; details: nih3t3
[6] = Inhibition of cell proliferation in mouse NIH/3T3 cells at 100 uM after 24 to 72 hrs by coulter counting analysis; assay type: cell-based; details: nih3t3, 100 µM
[7] = species: Mus musculus; test: Inhibition of Ras in mouse NIHRAS cells assessed as reduction of phosphorylated MAPK level at 250 uM after 24 hrs by sandwich ELISA; assay type: cell-based
[8] = system: NIH3T3; test: Inhibition of cell proliferation in mouse NIH/3T3 cells expressing K-RAS at 100 uM after 24 to 72 hrs by coulter counting analysis; assay type: functional, cell-based

Question: With `CC(=O)N[C@H]1C(N(Cc2ccc(O)c(O)c2)OCc2ccccc2)O[C@H](CO)[C@@H](O)[C@@H]1O` (stereo partly drawn) as the compound, how does the IC50 [1] read?
Answer: 80 µM

Question: What about the inhibition [2] of the same compound?
Answer: Dose-dependent effect

Question: And the Kd [3]?
Answer: 5.5 µM

Question: What about the IC50 [4] of the same compound?
Answer: 122 µM

Question: And the inhibition [4]?
Answer: Dose-dependent effect

Question: What about the “inhibition (INH)” value [5] of the same compound?
Answer: Dose-dependent effect

Question: What about the Activity [6] of the same compound?
Answer: Toxic

Question: What about the inhibition [7] of the same compound?
Answer: Active

Question: And the inhibition [8]?
Answer: Active

Question: Which IC50 [1] does the source give for `OC[C@H]1O[C@@H](O[C@H]2[C@H](O)[C@@H](O)C(N(Cc3ccc(O)c(O)c3)OCc3ccccc3)O[C@@H]2CO)[C@H](O)[C@@H](O)[C@H]1O` (stereo partly drawn) here?
Answer: 100 µM

Question: And the inhibition [2]?
Answer: Dose-dependent effect

Question: What about the Kd [3] of the same compound?
Answer: 7.8 µM

Question: What about the “inhibition (INH)” value [5] of the same compound?
Answer: Dose-dependent effect

Question: And the Activity [6]?
Answer: Toxic

Question: And the inhibition [8]?
Answer: Active

Question: With `OC[C@H]1OC(N(Cc2ccc(O)c(O)c2)OCc2ccccc2)[C@H](O)[C@@H](O)[C@@H]1O` (stereo partly drawn) as the compound, how does the IC50 [1] read?
Answer: 80 µM

Question: And the inhibition [2]?
Answer: Dose-dependent effect

Question: What about the Kd [3] of the same compound?
Answer: 9.5 µM

Question: What about the “inhibition (INH)” value [5] of the same compound?
Answer: Dose-dependent effect

Question: What about the Activity [6] of the same compound?
Answer: Toxic

Question: And the inhibition [8]?
Answer: Active

Question: For `Oc1ccc(CNOCc2ccccc2)cc1O`, which IC50 [1] is on record?
Answer: 320 µM

Question: What about the Kd [3] of the same compound?
Answer: 21.4 µM
